# In PubChem BioAssay AID652053 (Broad Institute, 2013):
# System: Huh7 psiCHECK-miR122 Renilla luciferase reporter, 48 h
# Experiment: miR-122 inhibitors in Huh7 reporter cells, dose response, cell-based, Huh7 psiCHECK-miR122, Renilla luciferase, cherry-pick (AID 652053)
row,SMILES,AC40
1,COc1ccc2nc(Nc3nc(CSc4nc5ccccc5[nH]4)cc(=O)[nH]3)nc(C)c2c1,9.96 µM
2,OC(c1ccc(F)cc1)c1ncc(-c2ccccc2F)[nH]1 (centres undefined),5.16 µM
3,CCOC(=O)c1c(C)[nH]c(C)c1S(=O)(=O)NCCc1ccc(SC)cc1,0.686 µM
4,CCCCNS(=O)(=O)c1ccc2nc(-c3cccnc3)cc(C(=O)NCCOC)c2c1,1.18 µM
5,Cc1ccccc1NS(=O)(=O)c1cc(C(=O)Nc2cccnc2)ccc1C,5.17 µM
6,O=C(C1CCCCC1)N1[C@H](CO)[C@@H]2c3ccccc3N(S(=O)(=O)c3ccccc3)C[C@@H]21,3.09 µM
7,O=C(CSc1nnc(-c2cc3ccccc3cc2O)n1Cc1ccco1)c1ccc(F)cc1,5.74 µM
8,COc1ccc(N(CC(=O)Nc2cc(C)on2)S(=O)(=O)c2cc(C)ccc2C)cc1,5.67 µM
9,Cc1ccc(S(=O)(=O)Nc2ccc3c(c2)CCC3)cc1,6.54 µM
10,C[C@H](CO)N1C[C@H](C)[C@H](CN(C)Cc2ccc(C(=O)Nc3ccccc3N)cc2)Oc2c(cccc2N(C)C)C1=O,8.75 µM
11,C[C@@H]1CN([C@H](C)CO)C(=O)c2cc(NC(=O)Cc3ccccc3)ccc2O[C@@H]1CN(C)S(=O)(=O)c1ccc(Cl)cc1,1.31 µM
12,Cc1ccc(S(=O)(=O)Nc2ccc3c(c2)CC(=O)N([C@H](C)CO)C[C@@H](C)[C@H](CN(C)Cc2ccc(C(=O)Nc4ccccc4N)cc2)O3)cc1,17.2 µM
13,COc1cc(S(=O)(=O)NCc2cccnc2)c(OC)cc1Br,4.72 µM
14,C[C@H]1CN([C@@H](C)CO)C(=O)c2cccc(NC(=O)Nc3ccccc3)c2O[C@@H]1CN(C)Cc1ccc(C(=O)Nc2ccccc2N)cc1,11.3 µM
15,O=C(Nc1ccc(S(=O)(=O)NCCc2ccccc2)cc1)c1ccco1,2.02 µM
16,Cc1cc(C(O)c2ncc(-c3ccccc3)[nH]2)ccc1F (centres undefined),19.2 µM
17,O=S(=O)(c1ccc(F)cc1)N1C[C@H]2[C@@H](c3ccccc31)[C@@H](CO)N2Cc1ccc2c(c1)OCO2,4.82 µM
18,O=S(=O)(NCc1ccco1)c1ccc2ccccc2c1,2.62 µM
19,COc1ccc(NS(=O)(=O)c2cc(NC(=O)c3cccc(OCc4c(C)noc4C)c3)ccc2OC)cc1,2.57 µM
20,Cc1ccc(NC(=S)NCc2ccc(F)cc2)cc1,20.3 µM
21,CCNS(=O)(=O)c1ccc2c3c(cccc13)C(=O)N2,11.6 µM
22,COc1ccc(S(=O)(=O)Nc2ccc3c(c2)CC(=O)N([C@H](C)CO)C[C@H](C)[C@H](CN(C)Cc2ccc(C(=O)Nc4ccccc4N)cc2)O3)cc1,10.5 µM
23,O=C(Cc1ccccc1)N1C[C@H]2[C@@H](c3ccccc31)[C@@H](CO)N2C(=O)c1ccc(F)cc1,5.37 µM
24,COc1ccccc1NS(=O)(=O)c1cc(NC(=S)NCC2CCCO2)ccc1C (centres undefined),3.52 µM
25,CCOc1ccc(S(=O)(=O)Nc2ccc3c(c2)OCO3)c2cccnc12,< 0.26 µM

row,SMILES,AC40
1,Nc1c(S(=O)(=O)c2cc(Cl)ccc2Cl)c2nc3ccccc3nc2n1CCN1CCOCC1,6.22 µM
2,CCc1ccc(-c2cc(C)no2)cc1S(=O)(=O)NCCc1ccc(S(N)(=O)=O)cc1,4.08 µM
3,COc1ccc(NC(=O)CCNS(=O)(=O)c2cc(Br)ccc2Br)cc1S(N)(=O)=O,2.1 µM
4,CS(=O)(=O)N(CC(=O)Nc1ccc(Cl)c(Cl)c1)C1CCCCC1,13.5 µM
5,COc1cc(NS(=O)(=O)c2ccc(NC(=S)NC(=O)c3ccco3)cc2)nc(OC)n1,7.11 µM
6,O=S1(=O)c2ccc(Br)cc2N2CCC[C@H]2CN1Cc1ccccc1,34.9 µM
7,COc1ccc(NS(=O)(=O)c2ccc(N3CCOCC3)c(NC(=O)c3ccc(F)cc3)c2)cc1,7.87 µM
8,O=C(c1ccc(NS(=O)(=O)c2ccc3c(c2)OCCO3)cc1)N1CCCCC1,14.8 µM
9,CCCn1c(N)c(C(=O)CSc2nnc(Cc3cccs3)n2C2CC2)c(=O)n(C)c1=O,7.17 µM
10,c1ccc(CNc2nnnn2-c2ccccc2)cc1,17.1 µM
11,O=S(=O)(c1ccccc1)N1C[C@H]2[C@@H](c3ccccc31)[C@@H](CO)N2Cc1ccc2c(c1)OCO2,8.56 µM
12,CCOc1cc(C)c(C(C)C)cc1S(=O)(=O)NCc1ccccn1,0.392 µM
13,O=C(Cc1ccccc1)N1C[C@@H]2[C@H](c3ccccc31)[C@@H](CO)N2C(=O)Nc1ccc(F)cc1,2.61 µM
14,Cc1ccc(S(=O)(=O)Nc2cccc3c2O[C@H](CN(C)Cc2ccc(C(=O)Nc4ccccc4N)cc2)[C@H](C)CN([C@H](C)CO)C3=O)cc1,10.8 µM
15,COc1ccc(OC)c(N(CC(=O)N2CCC(C)CC2)S(=O)(=O)c2ccccc2)c1,4.36 µM
16,C=CCNC(=O)c1ccccc1NC(=O)c1ccc(Cl)c(S(=O)(=O)Nc2cc(C)ccc2C)c1,1.38 µM
17,Cc1ccc(C)c(S(=O)(=O)Nc2ccc(C(=O)N3CCCCC3)cc2)c1,3.58 µM
18,O=c1c2ccccc2nnn1CSc1nnc(C2COc3ccccc3O2)n1-c1ccccc1 (centres undefined),19.2 µM
19,C[C@H](CO)N1C[C@H](C)[C@H](CN(C)CC2CCCCC2)Oc2c(NC(=O)c3cnccn3)cccc2C1=O,1.12 µM
20,Cc1ccc(C(C)C)cc1S(=O)(=O)NC1CC(C)(C)NC(C)(C)C1,8.18 µM
21,CCOC(=O)c1cc(S(=O)(=O)Nc2cccc(OC)c2)cn1C,1.84 µM
22,COc1cc(OC)c(NS(=O)(=O)c2ccc(Cl)c(C(=O)OC(C)C(=O)N3CCCC3)c2)cc1Cl (centres undefined),8.08 µM
23,Cc1ccc(S(=O)(=O)c2cccc(S(=O)(=O)N3CCCC3)c2)cc1S(=O)(=O)N1CCCC1,9.91 µM
24,COC(=O)c1ccc(NS(=O)(=O)c2cc(C)ccc2OC)cc1,4.89 µM
25,C[C@H]1CN([C@@H](C)CO)C(=O)c2cccc(NC(=O)C3CC3)c2O[C@@H]1CN(C)Cc1ccc(C(F)(F)F)cc1,0.42 µM

row,SMILES,AC40
1,C[C@@H]1CN([C@@H](C)CO)C(=O)c2cccc(NS(=O)(=O)c3ccccc3)c2O[C@@H]1CN(C)Cc1ccc(C(=O)Nc2ccccc2N)cc1,9.09 µM
2,COc1c(S(=O)(=O)NCCCn2ccnc2)ccc(Cl)c1Cl,21.3 µM
3,Cc1ccc([N+](=O)[O-])cc1N(CC(=O)Nc1ccc(S(=O)(=O)Nc2cccc(C(F)(F)F)c2)cc1)S(C)(=O)=O,14 µM
4,Cc1ccc(NS(=O)(=O)c2ccc3c(c2)n(C)c(=O)n3C)cc1C,3.8 µM
5,Cc1ccc(S(=O)(=O)NCCC2=CCCCC2)cc1,5.27 µM
6,Cc1cc(Cl)c(Cl)cc1S(=O)(=O)NCCCn1ccnc1,2.79 µM
7,COc1ccc(-c2cc(C)no2)cc1S(=O)(=O)Nc1cccc(C)c1,0.83 µM
8,CN1CCN(C(=O)c2cc3nc(-c4ccccc4)cc(-c4ccccc4)n3n2)CC1,2.23 µM
9,Cc1ccc(-c2nnc(Nc3ccc4c(c3)OCO4)c3ccccc23)cc1S(N)(=O)=O,5.9 µM
10,Cc1cccc(C)c1NC(=S)NC(C)CCc1ccccc1 (centres undefined),17 µM
11,Cc1cc(C)c(S(=O)(=O)NC2CC3CCC2C3)c(C)c1 (centres undefined),0.6 µM
12,C=CCNC(=O)c1ccccc1NC(=O)c1ccc(Cl)c(S(=O)(=O)Nc2cccc(C)c2C)c1,0.734 µM
13,COc1ccccc1NS(=O)(=O)c1cc(NC(=S)NCCN2CCOCC2)ccc1N1CCOCC1,1.71 µM
14,CCCCNS(=O)(=O)c1ccc(OC)c(Cl)c1Cl,3.99 µM
15,Cc1ccccc1OC1C(=O)N(Cc2ccc3c(c2)OCO3)C1c1sccc1C (centres undefined),13.7 µM
16,O=C(CN1CCOCC1)Nc1ccc(Br)cc1C(=O)c1ccccc1,1.64 µM
17,CCCNC(=O)NNC(=O)c1cc(-c2ccc3c(c2)OCO3)nc2ccccc12,2.65 µM
18,O=C(Nc1ccc(N2CCOCC2)c(S(=O)(=O)Nc2cc(Cl)ccc2Cl)c1)c1cccnc1,0.681 µM
19,Oc1ccc(/C=N/NP(=S)(c2ccccc2)c2ccccc2)cc1,7.07 µM
20,CCCCNS(=O)(=O)c1ccc2nc(SCC(N)=O)[nH]c2c1,6.07 µM
21,CCN(CC)c1ccc(N)cc1S(=O)(=O)Nc1ccc(OC)cc1,27.3 µM
22,COc1ccc(NS(=O)(=O)c2cc(NC(=O)COc3ccc(OC)cc3)ccc2N2CCOCC2)cc1,2.62 µM
23,Cc1cc(S(=O)(=O)NCC2CC2)c(Cl)cc1Cl,2.7 µM
24,COc1ccc(NS(=O)(=O)c2cc(NC(=O)Cc3c(F)cccc3Cl)ccc2OC)cc1,3.67 µM
25,Cc1ccc(NS(=O)(=O)c2ccc(-c3cnc(C4CC4)o3)cc2)cc1,9.25 µM

row,SMILES,AC40
1,Clc1ccc2[nH]cc(-c3nnnn3-c3ccc4ccccc4c3)c2c1,6.75 µM
2,O=C1C(Oc2ccccc2)C(c2ccc3c(c2)OCO3)N1CCc1ccc(F)cc1 (centres undefined),8.01 µM
3,CCCNC(=O)C[C@@H]1CC[C@H]2[C@H](COc3ccc(NC(=O)Nc4ccccc4F)cc3C(=O)N2C)O1,2.53 µM
4,CCOc1cc(S(=O)(=O)NCCc2ccccc2C)c(OCC)cc1-n1cnnn1,2.52 µM
5,COc1ccc(N(C(=O)c2ccco2)S(=O)(=O)c2cc(Cl)c(Cl)cc2Cl)cc1,12.4 µM
6,Cc1cccc(NS(=O)(=O)c2cc3c4c(c2)CCC(=O)N4CCC3)c1,1.94 µM
7,C[C@H]1CN([C@@H](C)CO)C(=O)Cc2cc(NC(=O)Nc3ccc(C(F)(F)F)cc3)ccc2O[C@H]1CN(C)S(=O)(=O)c1ccc(F)cc1,14 µM
8,COc1ccc(S(=O)(=O)Nc2ccc(S(=O)(=O)Nc3ccc(F)cc3)cc2)cc1C,14.5 µM
9,COc1ccc(NS(=O)(=O)c2cc(NC(=O)c3ccc(=O)[nH]c3)ccc2C)cc1,2.64 µM
10,COc1ccc(C)cc1S(=O)(=O)NC1CCCCC1C (centres undefined),3.25 µM
11,CCOc1cc(C)c(Cl)cc1S(=O)(=O)NC1CC(C)(C)NC(C)(C)C1,6.39 µM
12,Cc1ccccc1C(=O)Nc1ccc(Br)c(C)n1,3.17 µM
13,C[C@@H]1CN([C@H](C)CO)C(=O)c2cccc(N(C)C)c2O[C@H]1CN(C)C(=O)Nc1ccccc1,1.33 µM
14,COc1ccccc1NC(=S)NCC1CCCCC1,8.17 µM
15,COc1ccccc1CNS(=O)(=O)c1cc(-c2cc(C)no2)ccc1C(C)C,4.78 µM
16,O=S(=O)(Nc1ccc(Cl)cc1)c1cccc2nsnc12,14.8 µM
17,Cc1cc2c(cc1S(=O)(=O)NCCc1ccccc1)NC(=O)CO2,4.41 µM
18,CN1C(=O)c2cccc3c(S(=O)(=O)NCCc4ccccc4)ccc1c23,0.281 µM
19,C[C@@H]1CN([C@@H](C)CO)C(=O)c2cccc(NS(=O)(=O)c3ccc(F)cc3)c2O[C@@H]1CN(C)Cc1ccc(C(=O)Nc2ccccc2N)cc1,10.4 µM
20,CCC(=O)Nc1ccc(S(=O)(=O)NCCc2ccccc2)cc1,10.7 µM
21,CCCn1c(NC(=O)c2cccc(C)c2C)nc2ccccc21,16.2 µM
22,Cc1ccc(S(=O)(=O)N2CC[C@@H]3[C@@H](CO)Nc4ccc(-c5ccccc5F)cc4[C@@H]32)cc1,1.69 µM
23,O=C(C1CCCCC1)N1C[C@H]2[C@@H](c3ccccc31)[C@@H](CO)N2C(=O)c1ccccc1,1.37 µM
24,COc1ccc(-c2cc(C(=O)N(C)Cc3ccccc3F)c3ccccc3n2)cc1OC,14.7 µM
